# US8575153B2 (Kowa Company, Ltd., priority 2008, dated 2013)
# Key:
# [1] = biological target: Recombinant human JAK3 enzyme (JAK3 kinase region; Ala795-Ser1124) (Homo sapiens, UniProt P52333); assay: JAK3 Kinase Assay (Kinase-Glo luminescent, ATP consumption); settings: read-out: Inhibition rate (%) of JAK3 kinase activity
# Sequence of Recombinant human JAK3 enzyme (JAK3 kinase region; Ala795-Ser1124) (P52333 795-1124): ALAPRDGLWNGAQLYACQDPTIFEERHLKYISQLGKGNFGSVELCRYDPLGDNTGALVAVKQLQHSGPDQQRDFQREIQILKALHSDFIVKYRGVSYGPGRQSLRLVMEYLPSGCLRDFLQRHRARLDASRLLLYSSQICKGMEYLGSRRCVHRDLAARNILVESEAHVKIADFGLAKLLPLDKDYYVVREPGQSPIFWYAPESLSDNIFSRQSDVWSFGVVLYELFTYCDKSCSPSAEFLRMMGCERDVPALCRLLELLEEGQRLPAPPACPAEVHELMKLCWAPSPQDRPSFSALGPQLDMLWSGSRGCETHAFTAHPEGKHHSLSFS
melting point,inhibition at 0.1 µM [1] [%],Structure (SMILES)
218 to 220 °C (dec.),67,"CC(C)C(=O)N1CCN(c2ccc(Nc3cc(NCc4ccccc4)c(C(N)=O)cn3)cc2)CC1 [Example 259, 4-(benzylamino)-6-({4-[4-(2-methylpropanoyl)piperazin-1-yl]phenyl}amino)pyridine-3-carboxyamide]"
190 to 191 °C (dec.),68,"CCN(CC)CC(=O)N1CCN(c2ccc(Nc3cc(NCc4cccc([N+](=O)[O-])c4)c(C(N)=O)cn3)cc2)CC1 [Example 276, 6-({4-[4-(N,N-diethylglycyl)piperazin-1-yl]phenyl}amino)-4-[(3-nitrobenzyl)amino]pyridine-3-carboxyamide]"
169 to 172 °C (dec.),74,"NC(=O)c1cnc(Nc2ccc(NC3CCNCC3)cc2)cc1NCc1ccccc1 [Example 289, 4-(benzylamino)-6-{[4-(piperidin-4-ylamino)phenyl]amino}pyridine-3-carboxyamide]"
166 to 167 °C,79,"CC(C)NC(=O)N1CCC(Nc2ccc(Nc3cc(NCc4ccccc4)c(C(N)=O)cn3)cc2)CC1 [Example 291, 4-(benzylamino)-6-[(4-{[1-(propan-2-ylcarbamoyl)piperidin-4-yl]amino}phenyl)amino]pyridine-3-carboxyamide]"
